Assay results as given in ChEMBL document CHEMBL5104161, “Novel analgesic/anti-inflammatory agents: 1,5-Diarylpyrrole nitrooxyethyl sulfides and related compounds as Cyclooxygenase-2 inhibitors containing a nitric oxide donor moiety endowed with vasorelaxant properties” (Eur J Med Chem, 2022).

Assays:
J774 = assay: Ratio IC50 for inhibition of COX1 in mouse J774 cells over inhibition of COX2 in mouse J774 cells; format: cell-based
Rattus norvegicus [1] = assay: Anti-hyperalgesic activity in carrageenan-induced hyperalgesia male Sprague-Dawley rat model assessed as paw withdrawal threshold at 20 mg/kg, po measured 45 mins after compound administration by paw pressure test; format: functional; conditions: 0.75 h
Mus musculus [2] = assay: Analgesic activity against acetic acid-induced male CD1 albino mouse model assessed as number of writhes at 30 mg/kg, po measured after 30 mins by abdominal constriction test; format: functional; conditions: 0.5 h
Aorta = assay: Vasorelaxant activity in Sprague-Dawley rat aortic rings assessed as reduction in L-phenylephrine-induced contractions at 0.01 to 100 uM relative to control; format: functional; conditions: dose 0.01-100 µM
Rattus norvegicus [3] = assay: Anti-hyperalgesic activity in carrageenan-induced hyperalgesia male Sprague-Dawley rat model assessed as paw edema volume at 20 mg/kg, po measured 30 mins after compound administration by plethysmometer analysis; format: functional; conditions: 0.5 h
Mus musculus [4] = assay: Analgesic activity against acetic acid-induced male CD1 albino mouse model assessed as number of writhes at 20 mg/kg, po measured after 30 mins by abdominal constriction test; format: functional; conditions: 0.5 h
Rattus norvegicus [5] = assay: Anti-hyperalgesic activity in carrageenan-induced hyperalgesia male Sprague-Dawley rat model assessed as paw withdrawal threshold at 20 mg/kg, po measured 60 mins after compound administration by paw pressure test; format: functional; conditions: 1 h
[6] = target: T1, Prostaglandin G/H synthase 1 (Mus musculus, UniProt P22437); assay: Inhibition of COX1 in mouse J774 cells using arachidonic acid as substrate preincubated for 15 mins followed substrate addition and assessed as inhibition of PGE2 production after 30 mins by enzyme immuno-assay (EIA); format: cell-based
T1 sequence (P22437 whole entry): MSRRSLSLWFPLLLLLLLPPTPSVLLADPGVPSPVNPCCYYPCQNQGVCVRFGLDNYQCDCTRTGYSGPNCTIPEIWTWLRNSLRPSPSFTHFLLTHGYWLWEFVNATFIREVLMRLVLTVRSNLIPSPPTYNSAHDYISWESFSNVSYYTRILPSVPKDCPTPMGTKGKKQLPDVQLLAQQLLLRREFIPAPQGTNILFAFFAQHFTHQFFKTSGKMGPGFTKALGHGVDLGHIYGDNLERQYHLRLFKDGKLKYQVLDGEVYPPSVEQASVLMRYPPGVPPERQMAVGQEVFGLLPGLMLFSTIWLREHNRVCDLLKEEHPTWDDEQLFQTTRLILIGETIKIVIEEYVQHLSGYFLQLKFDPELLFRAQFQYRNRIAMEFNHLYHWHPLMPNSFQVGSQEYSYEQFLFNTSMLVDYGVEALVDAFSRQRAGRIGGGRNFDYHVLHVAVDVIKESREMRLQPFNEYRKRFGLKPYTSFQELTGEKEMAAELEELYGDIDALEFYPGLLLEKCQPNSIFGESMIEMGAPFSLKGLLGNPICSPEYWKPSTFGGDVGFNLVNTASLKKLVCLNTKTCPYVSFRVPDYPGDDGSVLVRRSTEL

[7] = target: T2, Prostaglandin G/H synthase 2 (Mus musculus, UniProt Q05769); assay: Inhibition of COX2 in LPS-stimulated mouse J774 cells assessed as inhibition of PGE2 production and measured after 24 hrs by enzyme immuno-assay (EIA); format: cell-based
T2 sequence (Q05769 whole entry): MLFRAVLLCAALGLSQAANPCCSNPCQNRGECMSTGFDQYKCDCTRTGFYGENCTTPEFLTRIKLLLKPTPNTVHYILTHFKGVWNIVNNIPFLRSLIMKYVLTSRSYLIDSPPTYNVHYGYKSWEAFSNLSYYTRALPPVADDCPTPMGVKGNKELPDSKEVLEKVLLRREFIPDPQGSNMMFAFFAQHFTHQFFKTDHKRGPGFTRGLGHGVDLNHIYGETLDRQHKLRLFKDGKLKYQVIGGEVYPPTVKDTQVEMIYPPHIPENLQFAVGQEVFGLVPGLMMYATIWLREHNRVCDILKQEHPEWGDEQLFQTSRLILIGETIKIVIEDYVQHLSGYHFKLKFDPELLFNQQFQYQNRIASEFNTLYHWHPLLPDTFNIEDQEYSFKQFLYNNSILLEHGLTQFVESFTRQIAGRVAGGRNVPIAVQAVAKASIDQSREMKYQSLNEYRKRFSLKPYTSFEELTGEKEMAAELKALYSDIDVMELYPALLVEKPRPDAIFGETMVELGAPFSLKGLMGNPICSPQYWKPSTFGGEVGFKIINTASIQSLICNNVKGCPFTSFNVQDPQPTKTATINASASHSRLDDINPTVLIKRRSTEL

Rattus norvegicus [8] = assay: Anti-hyperalgesic activity in carrageenan-induced hyperalgesia male Sprague-Dawley rat model assessed as paw withdrawal threshold at 20 mg/kg, po measured 30 mins after compound administration by paw pressure test; format: functional; conditions: 0.5 h
Mus musculus [9] = assay: Analgesic activity against acetic acid-induced male CD1 albino mouse model assessed as number of writhes at 10 mg/kg, po measured after 30 mins by abdominal constriction test; format: functional; conditions: 0.5 h
Rattus norvegicus [10] = assay: Anti-hyperalgesic activity in carrageenan-induced hyperalgesia male Sprague-Dawley rat model assessed as paw withdrawal threshold at 20 mg/kg, po measured 15 mins after compound administration by paw pressure test; format: functional; conditions: 0.25 h
[11] = Intrinsic clearance in mouse liver microsomes at 1 uM preincubated for 10 mins and measured up to 60 mins by LC-MS/MS analysis; format: ADME, Microsome; conditions: read-out: CLH
[12] = Half-life in human liver microsomes at 1 uM preincubated for 10 mins and measured up to 60 mins by LC-MS/MS analysis; format: ADME, Microsome
[13] = Intrinsic clearance in human liver microsomes at 1 uM preincubated for 10 mins and measured up to 60 mins by LC-MS/MS analysis; format: ADME, Microsome; conditions: read-out: CLH
[14] = Half-life in mouse liver microsomes at 1 uM preincubated for 10 mins and measured up to 60 mins by LC-MS/MS analysis; format: ADME, Microsome
Rattus norvegicus [15] = assay: Anti-hyperalgesic activity in carrageenan-induced hyperalgesia male Sprague-Dawley rat model assessed as paw withdrawal threshold at 10 mg/kg, po measured 15 mins after compound administration by paw pressure test; format: functional; conditions: 0.25 h
Rattus norvegicus [16] = assay: Anti-hyperalgesic activity in carrageenan-induced hyperalgesia male Sprague-Dawley rat model assessed as paw withdrawal threshold at 10 mg/kg, po measured 60 mins after compound administration by paw pressure test; format: functional; conditions: 1 h
Rattus norvegicus [17] = assay: Anti-hyperalgesic activity in carrageenan-induced hyperalgesia male Sprague-Dawley rat model assessed as paw edema volume at 10 mg/kg, po measured 30 mins after compound administration by plethysmometer analysis; format: functional; conditions: 0.5 h
Rattus norvegicus [18] = assay: Anti-hyperalgesic activity in carrageenan-induced hyperalgesia male Sprague-Dawley rat model assessed as paw withdrawal threshold at 10 mg/kg, po measured 45 mins after compound administration by paw pressure test; format: functional; conditions: 0.75 h
Rattus norvegicus [19] = assay: Anti-hyperalgesic activity in carrageenan-induced hyperalgesia male Sprague-Dawley rat model assessed as paw withdrawal threshold at 10 mg/kg, po measured 30 mins after compound administration by paw pressure test; format: functional; conditions: 0.5 h

Structure (SMILES) | Ratio IC50 (J774) | Activity (Rattus norvegicus [1]) [g] | Activity (Mus musculus [2]) | Efficacy (Aorta) [%] | Activity (Rattus norvegicus [3]) [mL] | Activity (Mus musculus [4]) | Activity (Rattus norvegicus [5]) [g] | IC50 [6] [nM] | IC50 [7] [nM] | Activity (Rattus norvegicus [8]) [g] | Activity (Mus musculus [9]) | Activity (Rattus norvegicus [10]) [g] | other results
Cc1c(CCOCCO[N+](=O)[O-])cc(-c2ccc(S(C)(=O)=O)cc2)n1-c1ccccc1 | > 588 | – | – | – | – | – | – | – | – | – | – | – | –
Cc1c(CC[S+]([O-])CCO[N+](=O)[O-])cc(-c2ccc(S(C)(=O)=O)cc2)n1-c1ccc(F)c(F)c1 (centres undefined) | > 3330 | 44.2 | 21.3 | 59 | 2.2 | 20.1 | 38.3 | > 10000 | 3 | 48.2 | 25.9 | 39.8 | –
Cc1c(CCSCCO[N+](=O)[O-])cc(-c2ccc(S(C)(=O)=O)cc2)n1-c1ccc(F)cc1 | > 1110 | 44.7 | 20.6 | 59 | 2.18 | 20.5 | 37.5 | > 10000 | 9 | 45.9 | 24.2 | 39.9 | microsomal CLint at 1 µM [11]: 61.2 µL/min/mg; half-life at 1 µM [12]: 10.5 min; microsomal CLint at 1 µM [13]: 132 µL/min/mg; half-life at 1 µM [14]: 22.8 min
Cc1c(CC[S+]([O-])CCO)cc(-c2ccc(S(C)(=O)=O)cc2)n1-c1ccc(F)cc1 (centres undefined) | > 11 | – | – | – | – | – | – | > 10000 | 916 | – | – | – | microsomal CLint at 1 µM [11]: 9.7 µL/min/mg; half-life at 1 µM [12]: 470 min; microsomal CLint at 1 µM [13]: 3.2 µL/min/mg; half-life at 1 µM [14]: 142 min
Cc1c(CCSCCO[N+](=O)[O-])cc(-c2ccc(S(C)(=O)=O)cc2)n1-c1ccc(F)c(F)c1 | > 625 | 45.7 | 20.7 | 59 | 2.31 | 19 | 37.1 | > 10000 | 16 | 46.1 | 22.5 | 40.6 | –
Cc1c(CCSCCO)cc(-c2ccc(S(C)(=O)=O)cc2)n1-c1ccc(F)c(F)c1 | > 588 | 45.3 | 17.4 | – | 2.09 | 19.6 | 39.6 | > 10000 | 17 | 46.6 | 23.8 | 37.8 | –
Cc1ccc(-c2cc(C(F)(F)F)nn2-c2ccc(S(N)(=O)=O)cc2)cc1 [CELECOXIB] | – | – | – | – | – | – | – | – | – | – | – | – | Activity (Rattus norvegicus [15]): 48.5 g; Activity (Rattus norvegicus [16]): 46.7 g; Activity (Rattus norvegicus [17]): 1.56 mL; Activity (Rattus norvegicus [18]): 54 g; Activity (Rattus norvegicus [19]): 51.3 g
Cc1c(CC[S+]([O-])CCO[N+](=O)[O-])cc(-c2ccc(S(C)(=O)=O)cc2)n1-c1ccc(F)cc1 (centres undefined) | > 2000 | 46.1 | 18 | – | 2.25 | 21.8 | 36.3 | > 10000 | 5 | 47.2 | 29.2 | 42.3 | microsomal CLint at 1 µM [11]: 40.3 µL/min/mg; half-life at 1 µM [12]: 34.7 min; microsomal CLint at 1 µM [13]: 39.9 µL/min/mg; half-life at 1 µM [14]: 35.1 min
Cc1c(CC[S+]([O-])CCO)cc(-c2ccc(S(C)(=O)=O)cc2)n1-c1ccccc1 (centres undefined) | > 31.2 | – | – | – | – | – | – | > 10000 | 320 | – | – | – | –
Cc1c(CC[S+]([O-])CCO)cc(-c2ccc(S(C)(=O)=O)cc2)n1-c1ccc(F)c(F)c1 (centres undefined) | > 71.4 | – | – | – | – | – | – | > 10000 | 140 | – | – | – | –
Cc1c(CCSCCO)cc(-c2ccc(S(C)(=O)=O)cc2)n1-c1ccccc1 | > 400 | – | – | – | – | – | – | > 10000 | 25 | – | – | – | –
Cc1c(CC[S+]([O-])CCO[N+](=O)[O-])cc(-c2ccc(S(C)(=O)=O)cc2)n1-c1ccccc1 (centres undefined) | > 135 | – | – | 59 | – | – | – | > 10000 | 74 | – | – | – | –
Cc1c(CCSCCO)cc(-c2ccc(S(C)(=O)=O)cc2)n1-c1ccc(F)cc1 | > 1250 | 48.7 | 21.5 | – | 2.22 | 23.1 | 38.2 | > 10000 | 8 | 48.2 | 26.5 | 41.5 | microsomal CLint at 1 µM [11]: 73.2 µL/min/mg; half-life at 1 µM [12]: 36.2 min; microsomal CLint at 1 µM [13]: 39.2 µL/min/mg; half-life at 1 µM [14]: 19.2 min
Cc1c(CCOCCO[N+](=O)[O-])cc(-c2ccc(S(C)(=O)=O)cc2)n1-c1ccc(F)c(F)c1 | > 10.9 | – | – | – | – | – | – | – | – | – | – | – | –
CCOc1ccc2ccc(=O)oc2c1 | – | – | – | – | – | – | – | – | – | – | – | – | microsomal CLint at 1 µM [11]: 297 µL/min/mg; half-life at 1 µM [12]: 12.6 min; microsomal CLint at 1 µM [13]: 113 µL/min/mg; half-life at 1 µM [14]: 4.7 min
Cc1c(CCOCCO[N+](=O)[O-])cc(-c2ccc(S(C)(=O)=O)cc2)n1-c1ccc(F)cc1 | > 714 | – | – | 59 | – | – | – | – | – | – | – | – | –
Cc1c(CCOCCO)cc(-c2ccc(S(C)(=O)=O)cc2)n1-c1ccc(F)c(F)c1 | > 23.8 | – | – | – | – | – | – | – | – | – | – | – | –
Cc1c(CCSCCO[N+](=O)[O-])cc(-c2ccc(S(C)(=O)=O)cc2)n1-c1ccccc1 | > 345 | – | – | 59 | – | – | – | > 10000 | 29 | – | – | – | –
